[invAb] = inverted abasic unit; m = 2'-O-methyl; r = 2'-OH (RNA); f = 2'-fluoro
Tests used:
ENaCα mRNA = experiment: Screening of ENaCα siNAs in human A549 cells (quantitative RT-PCR); assay type: cell-based; parameters: Percent Reduction of the ENaCα mRNA relative to a non-targeting control siNA (NTC): concentration or dose not given beside the values; conditions: human A549 cells, n = 3; for Avg ENaCα Expression: 25 nM siNA with Lipofectamine 2000, harvested 24 hours post-transfection; for Mean (level of ENaCα expression normalized to the level of GAPDH) / Percent Reduction of the ENaCα mRNA relative to a non-targeting control siNA (NTC) / Avg GAPDH Expression: 24 hours post-transfection; for Avg GAPDH Expression: housekeeping gene used for normalisation
Procedure, shortened: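 A549 cells were seeded 24 h ahead, then transfected in triplicate with siNA/Lipofectamine 2000 at 25 nM siNA and 2.33 μg/ml lipid final, incubated at 37 °C. ENaCα mRNA quantified by qRT-PCR against an RNA standard curve, relative to non-targeting control siNA. IC50 from sigmoidal variable-slope fit.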

rSCNN1A (r ENaCα) mRNA = experiment: Screening of ENaCα siNAs in Rat H-4-II-E cells (quantitative RT-PCR); assay type: cell-based; parameters: Percent Reduction of the r ENaCα mRNA relative to a non-targeting control siNA (NTCs) / Rat % KD (efficacy of ENaCα mRNA knockdown): concentration or dose not given beside the values; conditions: Rat H-4-II-E cells, n = 3; for Mean (rSCNN1A expression normalized to the level of rGAPDH) / Percent Reduction of the r ENaCα mRNA relative to a non-targeting control siNA (NTCs) / Avg GAPDH Expression (rGAPDH): 24 hours post-transfection; for Avg ENaCα Expression (rSCNN1A): harvested 24 hours post-transfection; for Avg GAPDH Expression (rGAPDH): housekeeping gene used for normalisation
Procedure, shortened: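 Rat H-4-II-E and mouse NIH 3T3 cells transfected with siNA–Lipofectamine 2000 complexes (25 nM siNA final; dose-response at constant lipid), screened at 24 h. qRT-PCR with ENaCα signal normalized to GAPDH or 36B4; % knockdown relative to non-targeting control siNA, triplicates; IC50 from sigmoidal variable-slope fit.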

Substance	Avg ENaCα Expression (ENaCα mRNA)	Mean (level of ENaCα expression normalized to the level of GAPDH) (ENaCα mRNA)	Percent Reduction of the ENaCα mRNA relative to a non-targeting control siNA (NTC) (ENaCα mRNA) [%]	Avg GAPDH Expression (ENaCα mRNA)	Mean (rSCNN1A expression normalized to the level of rGAPDH) (rSCNN1A (r ENaCα) mRNA)	Percent Reduction of the r ENaCα mRNA relative to a non-targeting control siNA (NTCs) (rSCNN1A (r ENaCα) mRNA) [%]	Avg ENaCα Expression (rSCNN1A) (rSCNN1A (r ENaCα) mRNA)	Avg GAPDH Expression (rGAPDH) (rSCNN1A (r ENaCα) mRNA)
B cAcuccuGcuuccAGGAGA TTB / UCUccuGGAAGcAGGAGuGUU (sense CACUCCUGCUUCCAGGAGATT; antisense UCUCCUGGAAGCAGGAGUGUU; siRNA; sense: DNA at AGT, 2'-fluoro at CU, [invAb] at 5' end, 3' end, backbone not given here; antisense: sugars from the 5' end rrrfffmmmmmfmmmmmfmmm, backbone not given here) [Site 1351]	68.14	1.12	28.2	64.22	0.72	43.7	18.06	24.87
B cGcAuGAAGAcGGccuucu TTB / AGAAGGccGucuucAuGcGUU (chain 1 CGCAUGAAGACGGCCUUCUTT; chain 2 AGAAGGCCGUCUUCAUGCGUU; siRNA; chain 1: DNA at AGT, 2'-fluoro at CU, [invAb] at 5' end, 3' end, backbone not given here; chain 2: sugars from the 5' end rrrmmmffmfffffmfmfmmm, backbone not given here) [Site 340]	84.94	1.40	9.9	63.09	1.07	16.7	22.68	21.20
B ccAuccGccuGGuGuGcuc TTB / GAGcAcAccAGGcGGAuGGUU (chain 1 CCAUCCGCCUGGUGUGCUCTT; chain 2 GAGCACACCAGGCGGAUGGUU; siRNA; chain 1: DNA at AGT, 2'-fluoro at CU, [invAb] at 5' end, 3' end, backbone not given here; chain 2: sugars from the 5' end rrrfmfmffmmmfmmmfmmmm, backbone not given here) [Site 311]	65.43	1.29	17.0	53.29	0.83	35.2	16.42	19.71
B ccGcAuGAAGAcGGccuuc TTB / GAAGGccGucuucAuGcGGUU (chain 1 CCGCAUGAAGACGGCCUUCTT; chain 2 GAAGGCCGUCUUCAUGCGGUU; siRNA; chain 1: DNA at AGT, 2'-fluoro at CU, [invAb] at 5' end, 3' end, backbone not given here; chain 2: sugars from the 5' end rrrmmffmfffffmfmfmmmm, backbone not given here) [Site 339]	69.05	1.13	27.1	62.02	0.79	38.3	15.81	19.92

From patent US20110288154A1, “RNA Interference Mediated Inhibition of Epithelial Sodium Channel (ENaC) Gene Expression Using Short Interfering Nucleic Acid (siNA)” (MERCK & CO., INC., priority 2008, published 2011)
